Assay results taken from US20220213070A1, “COMPOUNDS INHIBITING TDG ACTIVITY” (EPITAS BIOSCIENCES (SHANGHAI) CO., LTD., priority 2019, published 2022).

Legend:
[1] = target: T1, TDG (Homo sapiens, UniProt Q13569); assay: Inhibition of TDG mismatch repair activity (fluorescent G·U double-stranded DNA probe T1-T2); format: biochemical; conditions: TDG 100 nM/L, preincubated with compound 37° C. 30 minutes; probe 30 nM; read-out: Inhibitory activity on TDG mismatch repair IC50
In short: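 TDG (100 nM/L) preincubated with compound 30 min at 37 °C in 20 mM HEPES pH7.5, 100 mM NaCl, 0.2 mM EDTA, 2.5 mM MgCl2, then 30 nM FAM/biotin G·U probe for 30 min at 25 °C. After streptavidin bead capture and 200 mM NaOH, supernatant fluorescence read at 485/520 nm; IC50 determined.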

[2] = tested on: Lung cancer cell line Calu-1; assay: Inhibition of the growth of Calu-1 cells (CellTiter-Glo, 72 hours); format: cell-based; conditions: Homo sapiens, 72 hours of culturing, read-out: Inhibitory activity on alu-1 cell growth IC50
In short: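 Calu-1 cells in McCoy's 5A with 10% FBS, seeded at 500 cells/well and dosed the next day at 0.1% DMSO final. Viability was read by CellTiter-Glo 2.0 luminescence after 72 h at 37° C. Activity class: ++ for IC50 ≤5 μM, + for IC50 >5 μM.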

[3] = target: T1, TDG; assay: TDG inhibitory activity of compounds in cells (caC-cmv-firefly luciferase reporter, HEK 293T TDG KO cells transfected with pCDNA4-TDG); format: cell-based; conditions: read-out: Inhibition rate on TDG activity
In short: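 TDG-knockout HEK 293T cells co-transfected with an in vitro Tet1-oxidised, 5caC-modified CMV-firefly reporter, a Renilla control and a TDG (or empty myc) plasmid, then treated with compounds for 72 h at 37°C. Firefly/Renilla ratio gives relative TDG activity inhibition, with activity bins set at 10 μM.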

T1 sequence (Q13569 whole entry): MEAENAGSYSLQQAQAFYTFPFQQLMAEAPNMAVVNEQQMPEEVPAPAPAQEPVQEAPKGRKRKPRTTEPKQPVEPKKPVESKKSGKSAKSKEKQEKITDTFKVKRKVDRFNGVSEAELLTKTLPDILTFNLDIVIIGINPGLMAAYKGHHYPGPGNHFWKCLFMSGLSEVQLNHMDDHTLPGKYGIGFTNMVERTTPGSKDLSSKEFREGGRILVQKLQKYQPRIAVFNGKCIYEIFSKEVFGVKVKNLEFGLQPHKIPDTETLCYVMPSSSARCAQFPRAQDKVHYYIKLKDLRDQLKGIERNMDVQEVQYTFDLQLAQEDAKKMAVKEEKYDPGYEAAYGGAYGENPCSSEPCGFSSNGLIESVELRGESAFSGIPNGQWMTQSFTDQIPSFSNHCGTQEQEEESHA

Compound | IC50 [1] | IC50 [2] | inhibition at 10 µM [3]
O=C(CCN1CCCc2ccccc21)c1ccc2c(c1)OCCO2 [Compound 14, 1-(2,3-dihydrobenzo[b][1,4]dioxin-6-yl)-3-(3,4-dihydrouinoline-1(2H)-yl)propan-1-one] | > 5 µM | > 5 µM | < 25%
O=C(CCN1CCc2ccccc2C(O)(c2ccc(F)cc2)C1)c1ccc2c(c1)OCCO2 (stereo not drawn) [Compound 53, 1-(2,3-dihydrobenzo[b][1,4]dioxin-6-yl)-3-(1-(4-fluorophenyl)-1-hydroxy-1,2,4,5-tetrahydro-3H-benzo[d]azepine-3-yl)propan-1-one] | ≤ 5 µM | ≤ 5 µM | < 25%
O=C(CCn1ncc2ccncc21)c1ccc2c(c1)OCCO2 [Compound 25, 1-(2,3-dihydrobenzo[b][1,4]dioxin-6-yl)-3-(1H-pyrazolo[3,4-c]pyridine-1-yl)propan-1-one] | > 5 µM | > 5 µM | < 25%
